Results from patent US9624214B2, “Amino-substituted imidazo[1,2-a]pyridinecarboxamides and their use” (BAYER PHARMA AKTIENGESELLSCHAFT, priority 2012, dated 2017).
Where a name gives a salt, the structure may show the parent alone.

molecular target: T1, recombinant guanylate cyclase reporter cell line (Rattus norvegicus, UniProt P19686+P20595); experiment: B-2. Action on recombinant guanylate cyclase reporter cell line; format: cell-based; conditions: MEC = minimal effective concentration; in some cases mean values from individual determinations
T1 construct: expressed in transfected cells
T1 sequence (P20595 1-619): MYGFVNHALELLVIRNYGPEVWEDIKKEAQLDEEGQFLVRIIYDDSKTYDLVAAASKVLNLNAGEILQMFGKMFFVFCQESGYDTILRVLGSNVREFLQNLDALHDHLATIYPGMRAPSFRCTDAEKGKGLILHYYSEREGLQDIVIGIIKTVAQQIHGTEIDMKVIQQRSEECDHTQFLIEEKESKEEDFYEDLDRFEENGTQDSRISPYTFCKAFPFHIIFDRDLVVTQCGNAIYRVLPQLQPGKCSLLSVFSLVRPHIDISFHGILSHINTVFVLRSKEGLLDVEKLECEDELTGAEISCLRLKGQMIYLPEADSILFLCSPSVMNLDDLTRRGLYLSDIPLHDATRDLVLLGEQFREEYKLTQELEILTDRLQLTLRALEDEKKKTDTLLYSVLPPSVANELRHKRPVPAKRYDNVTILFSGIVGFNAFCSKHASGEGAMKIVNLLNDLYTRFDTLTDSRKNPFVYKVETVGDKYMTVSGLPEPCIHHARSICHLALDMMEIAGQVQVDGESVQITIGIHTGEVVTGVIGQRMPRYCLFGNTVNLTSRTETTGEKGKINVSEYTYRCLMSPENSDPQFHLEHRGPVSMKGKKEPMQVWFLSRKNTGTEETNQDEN
T1 sequence (P19686 1-690): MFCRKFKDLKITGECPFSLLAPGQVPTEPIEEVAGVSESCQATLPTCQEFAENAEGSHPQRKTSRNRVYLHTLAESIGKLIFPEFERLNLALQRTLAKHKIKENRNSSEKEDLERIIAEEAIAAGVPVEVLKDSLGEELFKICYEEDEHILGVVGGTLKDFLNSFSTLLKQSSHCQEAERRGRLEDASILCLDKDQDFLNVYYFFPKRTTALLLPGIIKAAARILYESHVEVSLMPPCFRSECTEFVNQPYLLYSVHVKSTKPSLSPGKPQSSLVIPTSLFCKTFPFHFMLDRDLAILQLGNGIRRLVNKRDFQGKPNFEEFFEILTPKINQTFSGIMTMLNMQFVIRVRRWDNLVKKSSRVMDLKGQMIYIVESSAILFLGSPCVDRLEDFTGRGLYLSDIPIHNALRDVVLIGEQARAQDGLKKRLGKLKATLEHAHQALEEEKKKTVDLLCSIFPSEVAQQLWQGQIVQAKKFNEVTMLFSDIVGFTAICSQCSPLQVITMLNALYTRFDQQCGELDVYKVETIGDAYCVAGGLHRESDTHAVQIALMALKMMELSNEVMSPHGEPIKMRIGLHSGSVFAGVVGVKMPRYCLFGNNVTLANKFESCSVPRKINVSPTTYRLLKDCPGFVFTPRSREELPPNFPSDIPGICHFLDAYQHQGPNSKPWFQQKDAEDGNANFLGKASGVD
Procedure, shortened: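 Cellular activity was measured in a reporter cell line expressing recombinant guanylate cyclase. Values are given as MEC, the minimal effective concentration, and some are means of individual determinations.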

Structure (SMILES) | MEC
Cc1nc2c(OCc3c(F)cccc3F)cc(Cl)cn2c1C(=O)NCC(N)CC(F)(F)F (single isomer, unassigned) [Example 192, ent-N-(2-Amino-4,4,4-trifluorobutyl)-6-chloro-8-[(2,6-difluorobenzyl)oxy]-2-methylimidazo[1,2-a]pyridine-3-carboxamide] | 0.30 µM
Cc1nc2c(OCc3c(F)cccc3F)cc(Cl)cn2c1C(=O)NCC(N)CC(F)(F)F (single isomer, unassigned) [Example 193, ent-N-(2-Amino-4,4,4-trifluorobutyl)-6-chloro-8-[(2,6-difluorobenzyl)oxy]-2-methylimidazo[1,2-a]pyridine-3-carboxamide] | 1.00 µM
CCC(C)(N)CNC(=O)c1c(C)nc2c(OCc3c(F)cccc3F)cc(Cl)cn12 (single isomer, unassigned) [Example 194, ent-N-(2-Amino-2-methylbutyl)-6-chloro-8-[(2,6-difluorobenzyl)oxy]-2-methylimidazo[1,2-a]-pyridine-3-carboxamide] | 0.10 µM
CCC(C)(N)CNC(=O)c1c(C)nc2c(OCc3c(F)cccc3F)cc(Cl)cn12 (single isomer, unassigned) [Example 195, ent-N-(2-Amino-2-methylbutyl)-6-chloro-8-[(2,6-difluorobenzyl)oxy]-2-methylimidazo[1,2-a]-pyridine-3-carboxamide] | 0.30 µM
COCC(C)(N)CNC(=O)c1c(C)nc2c(OCc3c(F)cccc3F)cc(Cl)cn12 (single isomer, unassigned) [Example 196, ent-N-(2-Amino-3-methoxy-2-methylpropyl)-6-chloro-8-[(2,6-difluorobenzyl)oxy]-2-methylimidazo[1,2-a]pyridine-3-carboxamide] | 1.00 µM
COCC(C)(N)CNC(=O)c1c(C)nc2c(OCc3c(F)cccc3F)cc(Cl)cn12 (single isomer, unassigned) [Example 197, ent-N-(2-Amino-3-methoxy-2-methylpropyl)-6-chloro-8-[(2,6-difluorobenzyl)oxy]-2-methylimidazo[1,2-a]pyridine-3-carboxamide] | 1.00 µM
COCC(C)(N)CNC(=O)c1c(C)nc2c(OCc3c(F)cccc3F)cc(C)cn12 (single isomer, unassigned) [Example 198, ent-N-(2-Amino-3-methoxy-2-methylpropyl)-8-[(2,6-difluorobenzyl)oxy]-2,6-dimethylimidazo-[1,2-a]pyridine-3-carboxamide] | 0.30 µM
COCC(C)(N)CNC(=O)c1c(C)nc2c(OCc3c(F)cccc3F)cc(C)cn12 (single isomer, unassigned) [Example 199, ent-N-(2-Amino-3-methoxy-2-methylpropyl)-8-[(2,6-difluorobenzyl)oxy]-2,6-dimethylimidazo-[1,2-a]pyridine-3-carboxamide] | 0.30 µM
CC[C@](C)(N)CNC(=O)c1c(C)nc2c(OCc3c(F)cccc3F)cc(C)cn12 (single isomer, unassigned) [Example 200] | 0.04 µM
Cc1nc2c(OCc3c(F)cccc3F)cccn2c1C(=O)NCC(C)(N)CC(C)C (single isomer, unassigned) [Example 203, ent-N-(2-Amino-2,4-dimethylpentyl)-8-[(2,6-difluorobenzyl)oxy]-2-methylimidazo[1,2-a]pyridine-3-carboxamide] | 0.10 µM
Cc1nc2c(OCc3c(F)cccc3F)cccn2c1C(=O)NCC(C)(N)CC(C)C (single isomer, unassigned) [Example 204, ent-N-(2-Amino-2,4-dimethylpentyl)-8-[(2,6-difluorobenzyl)oxy]-2-methylimidazo[1,2-a]pyridine-3-carboxamide] | 1.00 µM
Cc1nc2c(OCc3c(F)cccc3F)cccn2c1C(=O)NCC(N)C(F)(F)F (single isomer, unassigned) [Example 208, ent-N-(2-Amino-3,3,3-trifluoropropyl)-8-[(2,6-difluorobenzyl)oxy]-2-methylimidazo[1,2-a]-pyridine-3-carboxamide] | 0.30 µM
Cc1nc2c(OCc3c(F)cccc3F)cccn2c1C(=O)NCC(N)C(F)(F)F (single isomer, unassigned) [Example 209, ent-N-(2-Amino-3,3,3-trifluoropropyl)-8-[(2,6-difluorobenzyl)oxy]-2-methylimidazo[1,2-a]-pyridine-3-carboxamide] | 0.30 µM
COCC(CN)NC(=O)c1c(C)nc2c(OCc3c(F)cccc3F)cc(C)cn12 (single isomer, unassigned) [Example 210, ent-N-(1-amino-3-methoxypropan-2-yl)-8-[(2,6-difluorobenzyl)oxy]-2,6-dimethylimidazo[1,2-a]-pyridine-3-carboxamide Trifluoroacetate] | 0.30 µM
Cc1nc2c(OCc3c(F)cccc3F)cc(Cl)cn2c1C(=O)NCC(N)C(C)C (single isomer, unassigned) [Example 211, ent-N-(2-Amino-3-methylbutyl)-6-chloro-8-[(2,6-difluorobenzyl)oxy]-2-methylimidazo[1,2-a]-pyridine-3-carboxamide] | 0.30 µM
Cc1nc2c(OCc3c(F)cccc3F)cc(Cl)cn2c1C(=O)NCC(N)C(C)C (single isomer, unassigned) [Example 212, ent-N-(2-Amino-3-methylbutyl)-6-chloro-8-[(2,6-difluorobenzyl)oxy]-2-methylimidazo[1,2-a]-pyridine-3-carboxamide] | 1.00 µM
COCC(C)(N)CNC(=O)c1c(C)nc2c(OCc3c(F)cccc3F)cccn12 (single isomer, unassigned) [Example 214, ent-N-(2-Amino-3-methoxy-2-methylpropyl)-8-[(2,6-difluorobenzyl)oxy]-2-methylimidazo[1,2-a]-pyridine-3-carboxamide] | 0.30 µM
COCC(C)(N)CNC(=O)c1c(C)nc2c(OCc3c(F)cccc3F)cccn12 (single isomer, unassigned) [Example 215, ent-N-(2-Amino-3-methoxy-2-methylpropyl)-8-[(2,6-difluorobenzyl)oxy]-2-methylimidazo[1,2-a]-pyridine-3-carboxamide] | 1.00 µM
Cc1cc(OCc2c(F)cccc2F)c2nc(C)c(C(=O)NCC(C)(N)CC(C)C)n2c1 (single isomer, unassigned) [Example 219, ent-N-(2-Amino-2,4-dimethylpentyl)-8-[(2,6-difluorobenzyl)oxy]-2,6-dimethylimidazo[1,2-a]-pyridine-3-carboxamide] | 0.30 µM
Cc1cc(OCc2c(F)cccc2F)c2nc(C)c(C(=O)NCC(C)(N)CC(C)C)n2c1 (single isomer, unassigned) [Example 220, ent-N-(2-Amino-2,4-dimethylpentyl)-8-[(2,6-difluorobenzyl)oxy]-2,6-dimethylimidazo[1,2-a]-pyridine-3-carboxamide] | 0.10 µM
Cc1cc(OCc2c(F)cccc2F)c2nc(C)c(C(=O)NCC(N)C(C)C)n2c1 (single isomer, unassigned) [Example 223, ent-N-(2-Amino-3-methylbutyl)-8-[(2,6-difluorobenzyl)oxy]-2,6-dimethylimidazo[1,2-a]pyridine-3-carboxamide] | 0.30 µM
Cc1cc(OCc2c(F)cccc2F)c2nc(C)c(C(=O)NCC(N)C(C)C)n2c1 (single isomer, unassigned) [Example 224, ent-N-(2-Amino-3-methylbutyl)-8-[(2,6-difluorobenzyl)oxy]-2,6-dimethylimidazo[1,2-a]pyridine-3-carboxamide] | 0.30 µM
